Reference: PubChem BioAssay AID743071 (Broad Institute, 2013)
Activity calls are given as the source filed them. No rule for the calls is given here.

Test system: M. tuberculosis wild type plus biotin, growth inhibition
Assay: bioa inhibitor dry powder, mtb growth inhibition, wild type strain with biotin (AID 743071)
Settings: for IC90: measured here: Mtb growth IC90

| SMILES | IC50 | IC90 |
| --- | --- | --- |
| COc1cccc(NC(=O)N2CCN(c3ccccc3)CC2)c1 | 50 µM | > 50 µM |
| COc1ccc(-c2cc(C(F)(F)F)n3nc(C(=O)Nc4cccnc4)cc3n2)cc1 | > 50 µM (inactive) | > 50 µM |
| O=C(Nc1cccnc1)c1cnn2c(C(F)(F)F)cc(-c3ccccc3)nc12 | > 50 µM (inactive) | > 50 µM |
| Cc1ccc(/C=C(\CCCC(=O)O)c2nc3ccccc3s2)cc1[N+](=O)[O-] | 9.6 µM | > 50 µM |
| CC(=O)c1ccc(N2CCN(C(=O)c3cccc(F)c3)CC2)cc1 | > 50 µM (inactive) | > 50 µM |
| CC(C)(C)c1ccc(C(=O)N2CCN(c3ccc4c(c3)OCO4)CC2)cc1 | 15 µM | > 50 µM |
| CC(=O)c1ccc(N2CCN(Cc3ccc4c(c3)OCO4)CC2)cc1 | 50 µM | > 50 µM |
| O=C(Nc1cccnc1)c1cnn2c(C(F)F)cc(C3CC3)nc12 | > 50 µM (inactive) | > 50 µM |
| COc1cc(/C=C/C(=O)Nc2cccnc2)cc(OC)c1OC | > 50 µM (inactive) | > 50 µM |
| Cc1nc2ccc(NC(=O)N3CCN(c4ccccc4)CC3)cc2s1 | 1.9 µM | 7.3 µM |
| O=C(Nc1cccnc1)c1cc2nc(-c3cccs3)cc(C(F)(F)F)n2n1 | > 50 µM (inactive) | > 50 µM |
| CCc1ccc(N2CCN(C(=O)c3ccc4c(c3)OCO4)CC2)cc1 | 8.7 µM | > 50 µM |
| O=C(Nc1ccc(Cl)cc1)c1cc2nc(C3CC3)cc(C(F)(F)F)n2n1 | > 50 µM (inactive) | > 50 µM |
| O=C(c1ccc2c(c1)OCO2)N1CCN(c2ccccc2)CC1 | 22.8 µM | > 50 µM |
| Cc1cc(C)n2nc(C(=O)Nc3cccnc3)nc2n1 | > 50 µM (inactive) | > 50 µM |
| COc1ccc(C(=O)N2CCN(c3ccc(C(C)=O)cc3)CC2)cc1 | 81.4 µM (inactive) | > 50 µM |
| CC(=O)c1ccc(N2CCN(C(=O)c3ccccc3)CC2)cc1 | > 50 µM (inactive) | > 50 µM |
| O=C(Nc1ccc(Cl)c(-c2nc3ccccc3[nH]2)c1)c1cccnc1 | 6.5 µM | > 50 µM |
| Cc1ccc(/C=C(\CCC(=O)O)c2nc3ccccc3s2)cc1[N+](=O)[O-] | 2 µM | 8.7 µM |
| CC(=O)c1ccc(N2CCN(C(=O)c3ccc(Br)cc3)CC2)c(F)c1 | > 50 µM (inactive) | > 50 µM |

| SMILES | IC50 | IC90 |
| --- | --- | --- |
| O=C(Nc1ccc2[nH]ccc2c1)N1CCN(c2ccccc2)CC1 | 8.5 µM | > 50 µM |
| CC(=O)c1ccc(N2CCN(C(=O)c3ccc(Cl)cc3)CC2)cc1 | > 50 µM (inactive) | > 50 µM |
| O=C(Nc1ccccc1)N1CCN(c2ccccc2)CC1 | 11.7 µM | > 50 µM |
| Cc1cccc(/C=C(\CCC(=O)O)c2nc3ccccc3s2)c1 | 3.1 µM | 11.6 µM |
| COC(=O)c1c(C(=O)OC)c(-c2cccc(F)c2)n2c1CS(=O)C2 (stereo not given) | > 50 µM (inactive) | > 50 µM |
| CC(=O)c1ccc(N2CCN(C(=O)c3ccc(F)cc3)CC2)cc1 | > 50 µM (inactive) | > 50 µM |
| Cc1ccc(/C=C(\CCC(=O)O)c2nc3ccccc3s2)cc1 | 2.2 µM | 5.6 µM |
| O=C(COc1ccc2ccc(=O)oc2c1)N1CCN(c2ccc(F)cc2)CC1 | > 50 µM (inactive) | > 50 µM |
| O=C(Nc1ccc2snnc2c1)N1CCCCC1 | 50 µM | > 50 µM |
| Cc1cc(C)n2nc(C(=O)Nc3cccnc3)cc2n1 | > 50 µM (inactive) | > 50 µM |
| O=C(O)CC/C(=C\c1ccccc1[N+](=O)[O-])c1nc2ccccc2s1 | > 50 µM (inactive) | > 50 µM |
| Cc1ccc(NC(=O)N2CCN(c3ccccc3)CC2)cc1 | 8 µM | > 50 µM |
| O=C(Nc1cccc(Cl)c1)N1CCN(c2ccccc2)CC1 | 5.5 µM | > 50 µM |
| O=C(Nc1ccc(F)cc1)N1CCN(c2ccccc2)CC1 | 19.8 µM | > 50 µM |
| CC(=O)c1ccc(N2CCN(C(=O)c3cccc(Cl)c3)CC2)cc1 | > 50 µM (inactive) | > 50 µM |
| CC(=O)c1ccc(N2CCN(C(=O)c3ccc4c(c3)OCCO4)CC2)cc1 | > 50 µM (inactive) | > 50 µM |
| Cc1ccccc1/C=C(\CCC(=O)O)c1nc2ccccc2s1 | 8.4 µM | 40.4 µM |
| O=C(Nc1ccc2snnc2c1)N1CCOCC1 | > 50 µM (inactive) | > 50 µM |
| O=C(Nc1cccnc1)N1CCN(c2ccccc2)CC1 | > 50 µM (inactive) | > 50 µM |
| O=C(c1ccc2c(c1)OCO2)N1CCN(c2ccc(Cl)cc2)CC1 | 12.7 µM | 42.7 µM |

| SMILES | IC50 | IC90 |
| --- | --- | --- |
| CCN(CC)c1ccc2cc(C(=O)c3cccs3)c(=O)oc2c1 | 5.5 µM | > 50 µM |
| CCOC(=O)N1CCN(C(=O)Nc2ccc3snnc3c2)CC1 | 50 µM | > 50 µM |
| Cc1ccc(/C=C(\CC(=O)O)c2nc3ccccc3s2)cc1[N+](=O)[O-] | 7.2 µM | > 50 µM |
| O=C(Nc1ccncc1)c1cc2nc(C3CC3)cc(C(F)F)n2n1 | > 50 µM (inactive) | > 50 µM |
| COc1ccc(N2CCN(C(=O)c3ccc4c(c3)OCO4)CC2)cc1 | 10.1 µM | > 50 µM |
| CC(=O)c1ccc(N2CCN(C(=O)c3ccc4ncsc4c3)CC2)cc1 | > 50 µM (inactive) | > 50 µM |
| COc1cccc(C(=O)N2CCN(c3ccc(C(C)=O)cc3)CC2)c1 | > 50 µM (inactive) | > 50 µM |
| O=C(O)CC/C(=C\c1ccc([N+](=O)[O-])cc1)c1nc2ccccc2s1 | 8.2 µM | > 50 µM |
| O=C(Nc1cccc(F)c1)N1CCN(c2ccccc2)CC1 | 7.9 µM | > 50 µM |
| Cc1ccc(-c2cc(C(F)(F)F)n3nc(C(=O)Nc4cccnc4)cc3n2)cc1 | > 50 µM (inactive) | > 50 µM |
| O=C(c1ccc2c(c1)OCO2)N1CCN(c2ccc(F)cc2)CC1 | 18.9 µM | > 50 µM |
| CCc1ccc(C(=O)N2CCN(Cc3ccc4c(c3)OCO4)CC2)cc1 | 8.8 µM | > 50 µM |
| CC(=O)c1ccc(N2CCN(C(=O)c3ccc(C)cc3)CC2)cc1 | > 50 µM (inactive) | > 50 µM |
| CC(=O)c1ccc(N2CCN(C(=O)c3ccc4c(c3)OCO4)CC2)cc1 | > 50 µM (inactive) | > 50 µM |
| CC(=O)c1ccc(N2CCN(C(=O)c3cccnc3)CC2)cc1 | > 50 µM (inactive) | > 50 µM |
| COc1ccc(NC(=O)N2CCN(c3ccccc3)CC2)cc1 | > 50 µM (inactive) | > 50 µM |
| O=C(Nc1ccc2snnc2c1)N1CCN(c2ccccc2)CC1 | > 50 µM (inactive) | > 50 µM |
| COc1cccc(NC(=O)CCC2CCN(C(=O)c3ccc(C(C)=O)s3)CC2)c1 | > 50 µM (inactive) | > 50 µM |
| O=C(c1ccc2c(c1)OCO2)N1CCN(Cc2ccccc2)CC1 | > 50 µM (inactive) | > 50 µM |
| Cc1nc2cc(NC(=O)N3CCN(c4ccccc4)CC3)ccc2o1 | 50 µM | > 50 µM |
